Consider 3 compounds from patent US4734420A, “Anti-hypertensive agents” (priority 1980, dated 1988).

In data set [1] the test system is ACE. The settings on record: oral, most patients; cited from earlier work.
For another data set, the target named is Human urinary ACE (Homo sapiens, UniProt P12821). The data set can be described thus: biochemical. The settings on record: read-out: I50 value. From the text: The role of ACE in the pathogenesis of hypertension has prompted a search for inhibitors of the enzyme that could act as antihypertensive drugs. See for example U.S. Pat. Nos. 3,891,616, 3,947,575, 4,052,511 and 4,053,651. […]. No. 4,046,889 to Ondetti et al., issued Sept. 6, 1977, and in scientific articles by Cushman, D. W. et al., Biochemistry 16, 5484 (1977), and by Ondetti, M. et al., Science 196, 441 (1977). […]. These factors include the source of enzyme, its purity, the substrate used and its concentration, and the composition of the assay buffer. All I50 data reported herein have been performed with the same assay system and same enzyme (human urinary ACE) and with an approximately 1/2 Km level of substrate and are therefore internally consistent. Discrepancies with data obtained by other workers may be observed. Indeed such discrepancies do exist in the literature, for unknown reasons. See, for example, the I50 values for BPP9a reported by Cushman, D. W., et al., Experientia 29, 1032 (1973) and by Dorer, F. E., et al., Biochim. Biophys. Acta 429, 220 (1976).
The inhibitory potency of N^α -[3-(L-α-glutamylthio)-2-D-methyl-propanoyl]-L-proline in vitro was measured in the following assay. […] The enzyme was assayed in 0.05M Hepes buffer, pH 8.0 containing 0.1M NaCl and 0.75M Na2 SO4. […]

The test system of data set [2] is ACE. The settings on record: statement of belief; cited from earlier work.

Structures are written as SMILES.

Chain of Human urinary ACE (P12821 30-1232 limits assumed): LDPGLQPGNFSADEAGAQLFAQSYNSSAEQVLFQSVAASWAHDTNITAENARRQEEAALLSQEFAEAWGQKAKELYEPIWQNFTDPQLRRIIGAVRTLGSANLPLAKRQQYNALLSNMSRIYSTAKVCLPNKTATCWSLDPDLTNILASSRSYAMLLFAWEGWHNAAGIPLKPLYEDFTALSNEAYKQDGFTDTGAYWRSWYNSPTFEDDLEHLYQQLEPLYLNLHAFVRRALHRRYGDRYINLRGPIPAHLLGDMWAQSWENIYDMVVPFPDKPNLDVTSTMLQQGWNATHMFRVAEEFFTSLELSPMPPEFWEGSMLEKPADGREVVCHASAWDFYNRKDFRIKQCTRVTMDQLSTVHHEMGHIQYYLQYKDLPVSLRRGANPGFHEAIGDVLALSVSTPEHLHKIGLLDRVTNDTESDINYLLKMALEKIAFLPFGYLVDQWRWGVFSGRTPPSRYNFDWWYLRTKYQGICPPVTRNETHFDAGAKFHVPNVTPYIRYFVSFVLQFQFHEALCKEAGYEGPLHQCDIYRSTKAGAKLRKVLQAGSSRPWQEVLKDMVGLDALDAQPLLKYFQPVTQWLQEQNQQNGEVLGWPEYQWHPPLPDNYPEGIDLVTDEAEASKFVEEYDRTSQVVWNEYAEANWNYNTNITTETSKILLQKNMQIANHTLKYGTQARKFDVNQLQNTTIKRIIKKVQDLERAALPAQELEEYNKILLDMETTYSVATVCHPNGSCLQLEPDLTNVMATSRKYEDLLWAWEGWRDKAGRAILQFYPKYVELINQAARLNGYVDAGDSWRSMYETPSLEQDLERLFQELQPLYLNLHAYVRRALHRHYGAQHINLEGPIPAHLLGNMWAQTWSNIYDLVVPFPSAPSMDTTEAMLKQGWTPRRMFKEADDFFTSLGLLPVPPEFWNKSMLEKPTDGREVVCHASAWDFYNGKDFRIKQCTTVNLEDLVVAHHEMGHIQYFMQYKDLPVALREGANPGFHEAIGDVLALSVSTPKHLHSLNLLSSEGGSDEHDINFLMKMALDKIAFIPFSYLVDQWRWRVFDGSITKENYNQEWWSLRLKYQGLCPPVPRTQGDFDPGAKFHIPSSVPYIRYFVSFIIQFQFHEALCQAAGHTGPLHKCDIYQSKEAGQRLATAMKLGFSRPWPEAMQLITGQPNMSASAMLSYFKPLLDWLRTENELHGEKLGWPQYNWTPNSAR

Turning to `C[C@H](CS)C(=O)N1CCCC1C(=O)O` (stereo in doubt) [SQ14225, D-3-mercapto-2-methylpropanoyl-L-proline], the “stability in normal gastric and intestinal environments” value in the data set with ACE [1] is “sufficiently stable in the normal gastric and intestinal environments of most patients”.
Consider `C[C@H](CSC(=O)[C@@H](N)CCC(=O)O)C(=O)N1CCC[C@H]1C(=O)O` [N^α -[3-(L-α-glutamylthio)-2-D-methyl-propanoyl]-L-proline], for which the IC50 at Human urinary ACE is 2.1 nM.
As for `C[C@H](CSSC[C@@H](C)C(=O)N1CCC[C@H]1C(=O)O)C(=O)N1CCC[C@H]1C(=O)O` [disulfide], in the data set with ACE [2], the “inhibitory activity of disulfide (dimer of SQ14225)” value was “largely inactive as an inhibitor”.
